In US10865191B2, “Heterocyclic compounds useful as modulators of TNF alpha” (BRISTOL-MYERS SQUIBB COMPANY, priority 2015, dated 2020) one finds IC50 data, which are given here for 28 compounds.

Where two headings read alike, the source gives them in different places. A value given as a limit tells only on which side of the number the result lay.

The target in this test is TNFα (Homo sapiens, UniProt P01375). The experiment in a line: TNF induced HEK-Blue assay (NF-kB-driven secreted alkaline phosphatase reporter). Format: cell-based. The note with it: TNFα 0.5 ng/mL, HEK-Blue-CD40L cells, 18 h. How it is done: TNF or CD40L-Induced HEK-Blue Assay
Sequence of TNFα (P01375 77-233 limits assumed): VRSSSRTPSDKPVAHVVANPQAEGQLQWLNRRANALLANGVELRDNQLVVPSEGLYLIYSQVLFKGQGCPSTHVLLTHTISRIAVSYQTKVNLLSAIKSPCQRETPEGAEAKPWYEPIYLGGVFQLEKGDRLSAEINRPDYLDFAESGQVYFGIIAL
Test compounds serially diluted in DMSO were plated in an assay plate (LABCYTE, Cat. # LP-0200) at final concentrations ranging from 0.004 μM to 25 μM. TNFα (final concentration 0.5 ng/mL) or CD40L (final concentration 30 ng/mL) in assay buffer [DMEM, 4.5 g/l glucose (Gibco, Cat. 21063-029), 10% FBS (Sigma, F4135), 1% Penicillin-Streptomycin (Gibco, Cat. 15140-122), 1% Anti-Anti (Gibco, Cat. 15240-112) and 2 mM L-glutamine (Gibco, Cat. 25030-081)] was then added to the assay plate. After a 30 minute pre-incubation at 37° C. and 5% CO2, HEK-Blue™-CD40L cells (INVIVOGEN, Cat. Code hkb-cd40) containing a NF-kB-driven secreted alkaline phosphatase reporter gene were seeded into the assay plate at a density of 20,000 cells per well. This plate was then incubated for 18 h at 37° C. and 5% CO2. Secreted alkaline phosphatase expression was measured using QUANTI-Blue™ (INVIVOGEN, Cat. Code rep-qb1) according to manufacturer's specifications and the assay plate was read on a PerkinElmer Envision at 620 nm.
Inhibition data for the test compound over a range of concentrations was plotted as percentage inhibition of the test compound (100%=maximum inhibition). IC50 values were determined after correcting for background [(sample read-mean of low control)/(mean of high control-mean of low control)] where by the low control is DMSO without stimulation and high control is DMSO with stimulation. The IC50 is defined as the concentration of test compound which produces 50% inhibition and was quantified using the 4 parameter logistic equation to fit the data.

Setting [1] is: read-out: TNF induced HEK-Blue assay IC50 value.
Where [2] appears, read: TNF induced HEK-Blue assay IC50 value.

As usually defined, the IC50 is the concentration needed to halve the response being measured. Consider `CCC(Nc1c(Cl)cnc2ccc(-c3cnc(C(C)(C)O)nc3)cc12)C1CCC1` (racemic) [Example 50, 2-(5-(3-chloro-4-((1-cyclobutylpropyl)amino)quinolin-6-yl)pyrimidin-2-yl)propan-2-ol], for which the IC50 under setting [1] is less than 1 µM.

For `Cc1nc2ccc(-c3cnc(C(C)(C)O)nc3)cc2c(N[C@H](C)c2cc(OCCCO)ccc2F)c1Cl` [Example 444, (R)-3-(3-(1-((3-chloro-6-(2-(2-hydroxypropan-2-yl)pyrimidin-5-yl)-2-methylquinolin-4-yl)amino)ethyl)-4-fluorophenoxy)propan-1-ol], the IC50 under setting [1] was less than 1 µM.

`CC(C)(O)c1ncc(-c2ccc3ncc(Cl)c(NCc4ccc(C(F)(F)F)cc4)c3c2)cn1` [Example 145, 2-(5-(3-chloro-4-(4-(trifluoromethyl)benzylamino)quinolin-6-yl)pyrimidin-2-yl)propan-2-ol]: the IC50 under setting [1] fell in the range of 10 to 25 µM.

On to `Cc1nc2ccc(-c3cnc(C(C)(C)O)nc3)cc2c(N[C@H](C)c2cc(OCCO)ccc2F)c1Cl` [Example 435, (R)-2-(5-(3-chloro-4-((1-(2-fluoro-5-(2-hydroxyethoxy)phenyl)ethyl)amino)-2-methylquinolin-6-yl)pyrimidin-2-yl)propan-2-ol], for which the IC50 under setting [1] is less than 1 µM.

Regarding `C[C@@H](Nc1c(Cl)cnc2ccc(-c3ccc(N4CCOC[C@H]4CO)nc3)cc12)c1ccccc1F` [Example 85, ((R)-4-(5-(3-chloro-4-(((R)-1-(2-fluorophenyl)ethyl)amino)quinolin-6-yl)pyridin-2-yl)morpholin-3-yl)methanol], the IC50 under setting [1] lay within 1 to 10 µM.

Take `COC(=O)N1CCC[C@H]([C@H](C)Nc2c(Cl)cnc3ccc(-c4cnc(C(C)(C)O)nc4)cc23)C1` [Example 354, (S)-methyl 3-((S)-1-((3-chloro-6-(2-(2-hydroxypropan-2-yl)pyrimidin-5-yl)quinolin-4-yl)amino)ethyl)piperidine-1-carboxylate]: the IC50 under setting [1] is less than 1 µM.

As to `C[C@@H](Nc1c(Cl)cnc2ccc(-c3cnc(N4CCN(CC#N)CC4)nc3)cc12)c1ccccc1F` [Example 233, (R)-2-(4-(5-(3-chloro-4-((1-(2-fluorophenyl)ethyl)amino)quinolin-6-yl)pyrimidin-2-yl)piperazin-1-yl)acetonitrile], under setting [1], the IC50 is less than 1 µM.

In the case of `Cc1nc2ccc(-c3cnc(C(C)(C)O)nc3)cc2c(N[C@H](C)c2cc(Br)ccc2F)c1Cl` [Example 316, (R)-2-(5-(4-((1-(5-bromo-2-fluorophenyl)ethyl)amino)-3-chloro-2-methylquinolin-6-yl)pyrimidin-2-yl)propan-2-ol], under setting [1], the half-inhibitory concentration (IC50) was less than 1 µM.

As for `CC(C)(O)c1ncc(-c2ccc3ncc(Cl)c(NCc4ccc(OC(F)F)cc4)c3c2)cn1` [Example 148, 2-(5-(3-chloro-4-((4-(difluoromethoxy)benzyl)amino)quinolin-6-yl)pyrimidin-2-yl)propan-2-ol], the IC50 under setting [1] lay within 1 to 10 µM.

For `C[C@@H](Nc1c(Cl)cnc2ccc(-c3cnc(NCC(N)=O)nc3)cc12)c1ccccc1F` [Example 585, (R)-2-((5-(3-chloro-4-((1-(2-fluorophenyl)ethyl)amino)quinolin-6-yl)pyrimidin-2-yl)amino)acetamide], the 50% inhibitory concentration (IC50) under setting [1] lay in the range of 10 to 25 µM.

As for `C[C@@H](Nc1c(Cl)cnc2ccc(-c3cnc(C(C)(C)O)nc3)cc12)c1cc(C2NC(=O)NC2=O)ccc1F` (single isomer, unassigned) [Example 422], the IC50 under setting [1] is less than 1 µM.

In the case of `C[C@@H](Nc1c(Cl)cnc2ccc(-c3cnc(C(C)(C)O)nc3)cc12)c1cc(C(C)(C)O)ccc1F` [Example 410, (R)-2-(5-(3-chloro-4-((1-(2-fluoro-5-(2-hydroxypropan-2-yl)phenyl)ethyl)amino)quinolin-6-yl)pyrimidin-2-yl)propan-2-ol], the IC50 under setting [1] was in the range of 1 to 10 µM.

As to `CC(Cc1ccc(OC(F)(F)F)cc1)Nc1c(Cl)cnc2ccc(-c3cnc(C(C)(C)O)nc3)cc12` (racemic) [Example 137, 2-(5-(3-chloro-4-((1-(4-(trifluoromethoxy)phenyl)propan-2-yl)amino)quinolin-6-yl)pyrimidin-2-yl)propan-2-ol], under setting [1], the IC50 was in the range of 1 to 10 µM.

With `CCN(Cc1c(Cl)cnc2ccc(-c3cnc(C(C)(C)O)nc3)cc12)c1ccccc1F` [Example 68, 2-(5-(3-chloro-4-((ethyl(2-fluorophenyl)amino)methyl)quinolin-6-yl)pyrimidin-2-yl)propan-2-ol], under setting [1], the IC50 is less than 1 µM.

Regarding `C[C@@H](Nc1c(Cl)cnc2ccc(-c3ccc(C(N)CO)cc3)cc12)c1ccccc1F` (stereo partly drawn) [Example 100, 2-amino-2-(4-(3-chloro-4-(((R)-1-(2-fluorophenyl)ethyl)amino)quinolin-6-yl)phenyl)ethan-1-ol], the 50% inhibitory concentration (IC50) under setting [1] lay in the range of 1 to 10 µM.

Regarding `CC(Nc1c(Cl)cnc2ccc(-c3cnc(N4CCNC(=O)C4)nc3)cc12)c1nc(C(N)=O)ccc1F` (single isomer, unassigned) [Example 26, 6-(1-((3-chloro-6-(2-(3-oxopiperazin-1-yl)pyrimidin-5-yl)quinolin-4-yl)amino)ethyl)-5-fluoropicolinamide], the IC50 under setting [1] is less than 1 µM.

In the case of `Cc1ccc2c(CCC(C)Nc3c(Cl)cnc4ccc(-c5cnc(C(C)(C)O)nc5)cc34)c[nH]c2c1` (racemic) [Example 141, 2-(5-(3-chloro-4-((4-(6-methyl-1H-indol-3-yl)butan-2-yl)amino)quinolin-6-yl)pyrimidin-2-yl)propan-2-ol], the IC50 under setting [1] fell in the range of 10 to 25 µM.

Consider `Cc1nc2ccc(-c3cnc(C(C)(C)O)nc3)cc2c(N[C@H](C)c2cc(-c3cnn(C)c3)ccc2F)c1Cl` [Example 344, (R)-2-(5-(3-chloro-4-((1-(2-fluoro-5-(1-methyl-1H-pyrazol-4-yl)phenyl)ethyl)amino)-2-methylquinolin-6-yl)pyrimidin-2-yl)propan-2-ol], for which, under setting [1], the IC50 was less than 1 µM.

Regarding `C[C@@H](Nc1c(Cl)cnc2ccc(-c3cnc(C(C)(C)O)nc3)cc12)c1cc(Cl)ncc1F` [Example 53, (R)-2-(5-(3-chloro-4-((1-(2-chloro-5-fluoropyridin-4-yl)ethyl)amino)quinolin-6-yl)pyrimidin-2-yl)propan-2-ol], the IC50 under setting [1] was 1 to 10 µM.

As for `COC(=O)CN1CCN(c2ncc(-c3ccc4ncc(Cl)c(N[C@H](C)c5ccccc5F)c4c3)cn2)CC1` [Example 224], the IC50 under setting [1] is less than 1 µM.

For `CC(C)(O)c1ncc(-c2cc3c(N[C@H]4C[C@@H]4c4ccccc4)c(Cl)cnc3cc2F)cn1` (mixture of isomers) [Example 271, 2-(5-(3-chloro-7-fluoro-4-(((1S,2R)-2-phenylcyclopropyl)amino)quinolin-6-yl)pyrimidin-2-yl)propan-2-ol], the IC50 under setting [1] was 1 to 10 µM.

Consider `C=Cc1cccc(C(Nc2c(Cl)cnc3cc(F)c(-c4cnc(C(C)(C)O)nc4)nc23)C(F)F)c1` (racemic) [Example 216, 2-(5-(7-chloro-8-((2,2-difluoro-1-(3-vinylphenyl)ethyl)amino)-3-fluoro-1,5-naphthyridin-2-yl)pyrimidin-2-yl) propan-2-ol], for which the IC50 under setting [1] is less than 1 µM.

Consider `Cc1nc2cc(F)c(-c3cnc(C(C)(C)O)nc3)cc2c(N[C@H](C)c2cc(OCCCO)ccc2F)c1Cl` [Example 443, (R)-3-(3-(1-((3-chloro-7-fluoro-6-(2-(2-hydroxypropan-2-yl)pyrimidin-5-yl)-2-methylquinolin-4-yl)amino)ethyl)-4-fluorophenoxy)propan-1-ol], for which the IC50 under setting [1] is less than 1 µM.

Turning to `CC(Nc1c(Cl)cnc2ccc(-c3cnc(C(C)(C)O)nc3)cc12)c1ccc(C(F)(F)F)cc1` (racemic) [Example 150, 2-(5-(3-chloro-4-((1-(4-(trifluoromethyl)phenyl)ethyl)amino)quinolin-6-yl)pyrimidin-2-yl)propan-2-ol], the IC50 under setting [1] is 10 to 25 µM.

As to `C[C@@H](Nc1c(Cl)cnc2ccccc12)c1cc(-c2cncn2C)ccc1F` [Example 524, (R)-3-chloro-N-(1-(2-fluoro-5-(1-methyl-1H-imidazol-5-yl)phenyl)ethyl)quinolin-4-amine], the IC50 under setting [1] is less than 1 µM.

For the compound `C[C@@H](Nc1c(Cl)cnc2ccc(-c3ccc(C4(NS(C)(=O)=O)CCC4)cc3)cc12)c1ccccc1F` [Example 111, (R)—N-(1-(4-(3-chloro-4-((1-(2-fluorophenyl)ethyl)amino)quinolin-6-yl)phenyl)cyclobutyl)methanesulfonamide], under setting [1], the IC50 was in the range of 10 to 25 µM.

`CC(=O)N1CCC[C@H]([C@H](C)Nc2c(Cl)cnc3ccc(-c4cnc(C(C)(C)O)nc4)cc23)C1` [Example 107, 1-((S)-3-((S)-1-((3-chloro-6-(2-(2-hydroxypropan-2-yl)pyrimidin-5-yl)quinolin-4-yl)amino)ethyl)piperidin-1-yl)ethanone] registered an IC50 under setting [2] of less than 1 µM.

`Cc1ccc(C)c(Nc2c(Cl)c(C)nc3ccc(-c4cnc(C(C)(C)O)nc4)cc23)c1` [Example 1, 2-(5-(3-chloro-4-((2,5-dimethylphenyl)amino)-2-methylquinolin-6-yl)pyrimidin-2-yl)propan-2-ol] gave an IC50 under setting [2] of less than 1 µM.
